# Measured values published in ChEMBL document CHEMBL1201861, “Genomics of Drug Sensitity in Cancer screening data, Wellcome Trust Sanger Institute”.
# pIC50: −log10 of the molar value. Where a name gives a salt, the structure may show the parent alone.
# Experiments:
# Test in all cases: cells
# Assay type in all cases: functional, cell-based, Homo sapiens
# COLO-829 = settings: Homo sapiens, COLO-829
# Description: SANGER: Inhibition of human COLO-829 cell growth in a cell viability assay.
# D-392MG = settings: Homo sapiens, D-392MG
# DB = settings: Homo sapiens, DB
# Description: SANGER: Inhibition of human DB cell growth in a cell viability assay.
# DEL = settings: Homo sapiens, DEL;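 further: growth inhibition of the human DEL cell line, read out with a cell viability assay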
# Description: SANGER: Inhibition of human DEL cell growth in a cell viability assay.
# DOHH-2 = settings: Homo sapiens, DOHH-2;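 further: growth inhibition of human DOHH-2 cells, read out with a cell viability assay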
# Description: SANGER: Inhibition of human DOHH-2 cell growth in a cell viability assay.
# EC-GI-10 = settings: Homo sapiens, EC-GI-10
# Description: SANGER: Inhibition of human EC-GI-10 cell growth in a cell viability assay.
# EKVX = settings: Homo sapiens, EKVX;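 further: growth inhibition of human EKVX cells, read out with a cell viability assay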
# Description: SANGER: Inhibition of human EKVX cell growth in a cell viability assay.
# ES4 = settings: Homo sapiens, ES4;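 further: growth inhibition of human ES4 cells, read out by a cell viability assay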
# Description: SANGER: Inhibition of human ES4 cell growth in a cell viability assay.
# EW-18 = settings: Homo sapiens, EW-18;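 further: growth inhibition of EW-18 cells, read out by a cell viability assay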
# Description: SANGER: Inhibition of human EW-18 cell growth in a cell viability assay.
# EW-24 = settings: Homo sapiens, EW-24;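 further: human EW-24 cancer cell line, growth inhibition read out via a cell viability assay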
# Description: SANGER: Inhibition of human EW-24 cell growth in a cell viability assay.
# GR-ST = settings: Homo sapiens, GR-ST
# Description: SANGER: Inhibition of human GR-ST cell growth in a cell viability assay.
# HCC1187 = settings: Homo sapiens, HCC1187;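 further: growth inhibition of HCC1187 cells, read out with a cell viability assay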
# Description: SANGER: Inhibition of human HCC1187 cell growth in a cell viability assay.
# HCC2218 = settings: Homo sapiens, HCC2218;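 further: cell viability assay read-out, with IC50 given as the concentration that inhibits growth of the cell line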
# Description: SANGER: Inhibition of human HCC2218 cell growth in a cell viability assay.
# HT-144 = settings: Homo sapiens, HT-144
# Description: SANGER: Inhibition of human HT-144 cell growth in a cell viability assay.
# IST-SL1 = settings: Homo sapiens, IST-SL1;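 further: growth inhibition of human IST-SL1 cells, read out with a cell viability assay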
# Description: SANGER: Inhibition of human IST-SL1 cell growth in a cell viability assay.
# J-RT3-T3-5 = settings: Homo sapiens, J-RT3-T3-5;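 further: cell viability assay measuring growth inhibition of human J-RT3-T3-5 cells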
# Description: SANGER: Inhibition of human J-RT3-T3-5 cell growth in a cell viability assay.
# JVM-3 = settings: Homo sapiens, JVM-3;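 further: growth inhibition of human JVM-3 cells, read out with a cell viability assay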
# Description: SANGER: Inhibition of human JVM-3 cell growth in a cell viability assay.
# KALS-1 = settings: Homo sapiens, KALS-1;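 further: growth inhibition of KALS-1 cells, determined with a cell viability assay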
# Description: SANGER: Inhibition of human KALS-1 cell growth in a cell viability assay.
# KARPAS-45 = settings: Homo sapiens, KARPAS-45;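 further: inhibition of cell line growth, read out through a viability assay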
# Description: SANGER: Inhibition of human KARPAS-45 cell growth in a cell viability assay.
# KE-37 = settings: Homo sapiens, KE-37;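 further: growth inhibition of KE-37 cells, read out with a cell viability assay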
# Description: SANGER: Inhibition of human KE-37 cell growth in a cell viability assay.
# KGN = settings: Homo sapiens, KGN;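 further: growth inhibition of KGN cells, read out with a cell viability assay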
# Description: SANGER: Inhibition of human KGN cell growth in a cell viability assay.
# KINGS-1 = settings: Homo sapiens, KINGS-1;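 further: cell viability assay measuring suppression of KINGS-1 cell growth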
# Description: SANGER: Inhibition of human KINGS-1 cell growth in a cell viability assay.
# LB373-MEL-D = settings: Homo sapiens, LB373-MEL-D;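 further: growth inhibition of the cell line, read out in a cell viability assay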
# Description: SANGER: Inhibition of human LB373-MEL-D cell growth in a cell viability assay.
# LS-1034 = settings: Homo sapiens, LS-1034
# Description: SANGER: Inhibition of human LS-1034 cell growth in a cell viability assay.
# MFH-ino = settings: Homo sapiens, MFH-ino;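 further: growth inhibition of human MFH-ino cells, read out by a cell viability assay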
# Description: SANGER: Inhibition of human MFH-ino cell growth in a cell viability assay.
# MMAC-SF = settings: Homo sapiens, MMAC-SF;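 further: growth inhibition of human MMAC-SF cells, read out with a cell viability assay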
# Description: SANGER: Inhibition of human MMAC-SF cell growth in a cell viability assay.
# MN-60 = settings: Homo sapiens, MN-60;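 further: growth inhibition of the MN-60 cell line, determined with a cell viability assay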
# Description: SANGER: Inhibition of human MN-60 cell growth in a cell viability assay.
# MOLT-16 = settings: Homo sapiens, MOLT-16;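 further: growth inhibition of human MOLT-16 cells, read out with a cell viability assay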
# Description: SANGER: Inhibition of human MOLT-16 cell growth in a cell viability assay.
# NB5 = settings: Homo sapiens, NB5;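 further: growth inhibition of NB5 cells, read out as cell viability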
# Description: SANGER: Inhibition of human NB5 cell growth in a cell viability assay.
# NCI-H1355 = settings: Homo sapiens, NCI-H1355;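 further: growth inhibition of human NCI-H1355 cells, read out by a cell viability assay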
# Description: SANGER: Inhibition of human NCI-H1355 cell growth in a cell viability assay.
# NCI-H1581 = settings: Homo sapiens, NCI-H1581;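 further: cell growth inhibition read out by a viability assay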
# Description: SANGER: Inhibition of human NCI-H1581 cell growth in a cell viability assay.
# NCI-H1648 = settings: Homo sapiens, NCI-H1648;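 further: cell viability assay measuring inhibition of NCI-H1648 cell growth, from the Sanger screening data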
# Description: SANGER: Inhibition of human NCI-H1648 cell growth in a cell viability assay.
# SNU1 = settings: Homo sapiens, SNU1;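 further: growth inhibition of human NCI-SNU-1 cells, measured with a cell viability assay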
# Description: SANGER: Inhibition of human NCI-SNU-1 cell growth in a cell viability assay.
# NOMO-1 = settings: Homo sapiens, NOMO-1;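 further: growth inhibition of human NOMO-1 cells measured by a cell viability assay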
# Description: SANGER: Inhibition of human NOMO-1 cell growth in a cell viability assay.
# RH-1 = settings: Homo sapiens, RH-1;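 further: growth inhibition of human RH-1 cells, read out with a cell viability assay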
# Description: SANGER: Inhibition of human RH-1 cell growth in a cell viability assay.
# RKO = settings: Homo sapiens, RKO;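 further: growth inhibition of human RKO cells, read out with a cell viability assay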
# Description: SANGER: Inhibition of human RKO cell growth in a cell viability assay.
# RXF 393 = settings: Homo sapiens, RXF 393;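 further: growth inhibition of human RXF 393 cells, read out with a cell viability assay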
# Description: SANGER: Inhibition of human RXF393 cell growth in a cell viability assay.
# Ramos-2G6-4C10 = settings: Homo sapiens, Ramos-2G6-4C10;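 further: growth inhibition of the cell line, measured by a cell viability read-out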
# Description: SANGER: Inhibition of human Ramos-2G6-4C10 cell growth in a cell viability assay.
# SF-268 = settings: Homo sapiens, SF-268;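 further: growth inhibition of SF-268 cells determined with a cell viability assay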
# Description: SANGER: Inhibition of human SF268 cell growth in a cell viability assay.
# SNB-75 = settings: Homo sapiens, SNB-75;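 further: cell viability assay measuring growth inhibition of human SNB-75 cells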
# Description: SANGER: Inhibition of human SNB75 cell growth in a cell viability assay.
# SW684 = settings: Homo sapiens, SW684;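 further: growth inhibition of human SW684 cells, measured by a cell viability assay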
# Description: SANGER: Inhibition of human SW684 cell growth in a cell viability assay.
# A101D = settings: Homo sapiens, A101D;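 further: growth inhibition of the cell line, measured with a viability assay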
# Description: SANGER: Inhibition of human A101D cell growth in a cell viability assay.
# A253 cell line = settings: Homo sapiens, A253;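 further: growth inhibition of A253 cells, read out with a cell viability assay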
# Description: SANGER: Inhibition of human A253 cell growth in a cell viability assay.
# A704 = settings: Homo sapiens, A704;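 further: growth inhibition of human A704 cells, read out with a cell viability assay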
# Description: SANGER: Inhibition of human A704 cell growth in a cell viability assay.
# BB30-HNC = settings: Homo sapiens, BB30-HNC;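 further: growth inhibition of the cultured cell line, read out by a cell viability assay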
# Description: SANGER: Inhibition of human BB30-HNC cell growth in a cell viability assay.
# C2BBe1 = settings: Homo sapiens, C2BBe1;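 further: growth inhibition of C2BBe1 cells, read out through a viability assay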
# Description: SANGER: Inhibition of human C2BBe1 cell growth in a cell viability assay.
# no-10 = settings: Homo sapiens;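 further: growth inhibition of no-10 cells, read out with a cell viability assay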
# Description: SANGER: Inhibition of human no-10 cell growth in a cell viability assay.
# CCRF-CEM = settings: Homo sapiens, CCRF-CEM;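 further: inhibition of CCRF-CEM cell growth, measured by a cell viability assay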
# Description: SANGER: Inhibition of human CCRF-CEM cell growth in a cell viability assay.
# COLO-320-HSR = settings: Homo sapiens, COLO-320-HSR;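 further: growth inhibition of COLO-320-HSR cells, determined with a cell viability assay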
# Description: SANGER: Inhibition of human COLO-320-HSR cell growth in a cell viability assay.
smiles,measurement,setting,value
Cc1cc([N+](=O)[O-])ccc1NS(=O)(=O)c1cc(Cl)ccc1Cl,pIC50,COLO-829,6.08
same,pIC50,D-392MG,< 4.49
same,pIC50,DB,5.09
same,pIC50,DEL,5.18
same,pIC50,DOHH-2,4.76
same,pIC50,EC-GI-10,4.95
same,pIC50,EKVX,5.12
same,pIC50,ES4,5.12
same,pIC50,EW-18,5.02
same,pIC50,EW-24,< 4.49
same,pIC50,GR-ST,4.99
same,pIC50,HCC1187,4.68
same,pIC50,HCC2218,5.46
same,pIC50,HT-144,5.53
same,pIC50,IST-SL1,4.61
same,pIC50,J-RT3-T3-5,5.27
same,pIC50,JVM-3,< 4.49
same,pIC50,KALS-1,5.07
same,pIC50,KARPAS-45,5.35
same,pIC50,KE-37,< 4.49
same,pIC50,KGN,5.38
same,pIC50,KINGS-1,< 4.49
same,pIC50,LB373-MEL-D,5.54
same,pIC50,LS-1034,5.26
same,pIC50,MFH-ino,6.30
same,pIC50,MMAC-SF,5.41
same,pIC50,MN-60,4.57
same,pIC50,MOLT-16,5.29
same,pIC50,NB5,4.84
same,pIC50,NCI-H1355,5.53
same,pIC50,NCI-H1581,5.03
same,pIC50,NCI-H1648,5.69
same,pIC50,SNU1,4.97
same,pIC50,NOMO-1,5.21
same,pIC50,RH-1,4.99
same,pIC50,RKO,5.66
same,pIC50,RXF 393,< 4.49
same,pIC50,Ramos-2G6-4C10,5.22
same,pIC50,SF-268,5.22
same,pIC50,SNB-75,< 4.49
same,pIC50,SW684,< 4.49
same,pIC50,A101D,5.34
same,pIC50,A253 cell line,5.23
same,pIC50,A704,5.59
same,pIC50,BB30-HNC,5.58
same,pIC50,C2BBe1,4.59
same,pIC50,no-10,< 4.49
same,pIC50,CCRF-CEM,5.10
same,pIC50,COLO-320-HSR,4.75
COc1cccc2c1C(=O)c1c(O)c3c(c(O)c1C2=O)C[C@@](O)(C(=O)CO)C[C@@H]3O[C@H]1C[C@H](N)[C@H](O)[C@H](C)O1 [DOXORUBICIN],pIC50,COLO-829,< 5.99
same,pIC50,D-392MG,6.60
same,pIC50,DB,6.79
same,pIC50,DEL,7.42
same,pIC50,DOHH-2,7.70
same,pIC50,EC-GI-10,< 5.99
same,pIC50,EKVX,6.06
same,pIC50,ES4,8.21
same,pIC50,EW-18,6.60
same,pIC50,EW-24,6.01
same,pIC50,GR-ST,6.59
same,pIC50,HCC1187,6.23
same,pIC50,HCC2218,6.74
same,pIC50,HT-144,8.45
same,pIC50,IST-SL1,6.29
same,pIC50,J-RT3-T3-5,7.02
same,pIC50,JVM-3,< 5.99
same,pIC50,KALS-1,7.53
same,pIC50,KARPAS-45,< 5.99
same,pIC50,KE-37,7.68
same,pIC50,KGN,8.20
same,pIC50,KINGS-1,5.99
same,pIC50,LB373-MEL-D,6.46
same,pIC50,LS-1034,6.42
same,pIC50,MFH-ino,8.40
same,pIC50,MMAC-SF,6.97
same,pIC50,MN-60,6.22
same,pIC50,MOLT-16,6.54
same,pIC50,NB5,6.44
same,pIC50,NCI-H1355,6.82
same,pIC50,NCI-H1581,6.01
same,pIC50,NCI-H1648,6.88
same,pIC50,SNU1,7.18
same,pIC50,NOMO-1,6.65
same,pIC50,RH-1,8.17
same,pIC50,RKO,7.65
same,pIC50,RXF 393,6.47
same,pIC50,Ramos-2G6-4C10,6.53
same,pIC50,SF-268,7.03
same,pIC50,SNB-75,6.83
same,pIC50,SW684,< 5.99
same,pIC50,A101D,7.29
same,pIC50,A253 cell line,7.34
same,pIC50,A704,< 5.99
same,pIC50,BB30-HNC,7.53
same,pIC50,C2BBe1,< 5.99
same,pIC50,no-10,6.79
same,pIC50,CCRF-CEM,7.61
same,pIC50,COLO-320-HSR,6.29
N#Cc1c(O)c2c(-c3ccc(-c4ccccc4O)cc3)csc2[nH]c1=O,pIC50,COLO-829,< 5.99
same,pIC50,D-392MG,< 5.99
same,pIC50,DB,6.31
same,pIC50,DEL,6.64
same,pIC50,DOHH-2,6.61
same,pIC50,EC-GI-10,< 5.99
same,pIC50,EKVX,< 5.99
same,pIC50,ES4,< 5.99
same,pIC50,EW-18,6.35
same,pIC50,EW-24,< 5.99
same,pIC50,GR-ST,6.66
same,pIC50,HCC1187,< 5.99
same,pIC50,HCC2218,6.47
same,pIC50,HT-144,< 5.99
same,pIC50,IST-SL1,< 5.99
same,pIC50,J-RT3-T3-5,6.42
same,pIC50,JVM-3,< 5.99
same,pIC50,KALS-1,< 5.99
same,pIC50,KARPAS-45,6.77
same,pIC50,KE-37,6.89
same,pIC50,KGN,< 5.99
same,pIC50,KINGS-1,< 5.99
same,pIC50,LB373-MEL-D,< 5.99
same,pIC50,LS-1034,< 5.99
same,pIC50,MFH-ino,< 5.99
same,pIC50,MMAC-SF,< 5.99
same,pIC50,MN-60,6.46
same,pIC50,MOLT-16,7.21
same,pIC50,NB5,< 5.99
same,pIC50,NCI-H1355,< 5.99
same,pIC50,NCI-H1581,< 5.99
same,pIC50,NCI-H1648,< 5.99
same,pIC50,SNU1,6.51
same,pIC50,NOMO-1,6.58
same,pIC50,RH-1,< 5.99
same,pIC50,RKO,< 5.99
same,pIC50,RXF 393,< 5.99
same,pIC50,Ramos-2G6-4C10,6.77
same,pIC50,SF-268,< 5.99
same,pIC50,SNB-75,< 5.99
same,pIC50,SW684,< 5.99
same,pIC50,A101D,< 5.99
same,pIC50,A253 cell line,< 5.99
same,pIC50,A704,< 5.99
same,pIC50,BB30-HNC,< 5.99
same,pIC50,C2BBe1,< 5.99
same,pIC50,no-10,< 5.99
same,pIC50,CCRF-CEM,6.84
same,pIC50,COLO-320-HSR,< 5.99
Nc1ccn([C@@H]2O[C@H](CO)[C@@H](O)C2(F)F)c(=O)n1 [GEMCITABINE],pIC50,COLO-829,< 5.99
same,pIC50,D-392MG,5.99
same,pIC50,DB,7.07
same,pIC50,DEL,> 8.40
same,pIC50,DOHH-2,6.71
same,pIC50,EC-GI-10,< 5.99
same,pIC50,EKVX,< 5.99
same,pIC50,ES4,> 8.40
same,pIC50,EW-18,7.14
same,pIC50,EW-24,< 5.99
same,pIC50,GR-ST,> 8.40
same,pIC50,HCC1187,< 5.99
same,pIC50,HCC2218,< 5.99
same,pIC50,HT-144,8.31
same,pIC50,IST-SL1,6.70
same,pIC50,J-RT3-T3-5,7.17
same,pIC50,JVM-3,< 5.99
same,pIC50,KALS-1,7.67
same,pIC50,KARPAS-45,< 5.99
same,pIC50,KE-37,> 8.40
same,pIC50,KGN,> 8.40
same,pIC50,KINGS-1,< 5.99
same,pIC50,LB373-MEL-D,< 5.99
same,pIC50,LS-1034,< 5.99
same,pIC50,MFH-ino,8.78
same,pIC50,MMAC-SF,< 5.99
same,pIC50,MN-60,< 5.99
same,pIC50,MOLT-16,7.37
same,pIC50,NB5,< 5.99
same,pIC50,NCI-H1355,> 8.40
same,pIC50,NCI-H1581,< 5.99
same,pIC50,NCI-H1648,6.29
same,pIC50,SNU1,> 8.40
same,pIC50,NOMO-1,7.54
same,pIC50,RH-1,> 8.40
same,pIC50,RKO,> 8.40
same,pIC50,RXF 393,< 5.99
same,pIC50,Ramos-2G6-4C10,6.18
same,pIC50,SF-268,> 8.40
same,pIC50,SNB-75,7.43
same,pIC50,SW684,< 5.99
same,pIC50,A101D,8.03
same,pIC50,A253 cell line,6.99
same,pIC50,A704,7.27
same,pIC50,BB30-HNC,> 8.40
same,pIC50,C2BBe1,< 5.99
same,pIC50,no-10,6.76
same,pIC50,CCRF-CEM,7.72
same,pIC50,COLO-320-HSR,6.65
COC1=CC(c2cc3ccccc3[nH]2)=N/C1=C\c1[nH]c(C)cc1C [OBATOCLAX MESYLATE],pIC50,COLO-829,6.14
same,pIC50,D-392MG,5.80
same,pIC50,DB,6.63
same,pIC50,DEL,7.08
same,pIC50,DOHH-2,> 7.20
same,pIC50,EC-GI-10,< 4.80
same,pIC50,EKVX,5.78
same,pIC50,ES4,6.99
same,pIC50,EW-18,6.89
same,pIC50,EW-24,6.47
same,pIC50,GR-ST,> 7.20
same,pIC50,HCC1187,5.77
same,pIC50,HCC2218,5.62
same,pIC50,HT-144,> 7.20
same,pIC50,IST-SL1,5.18
same,pIC50,J-RT3-T3-5,6.93
same,pIC50,JVM-3,< 4.80
same,pIC50,KALS-1,6.22
same,pIC50,KARPAS-45,> 7.20
same,pIC50,KE-37,> 7.20
same,pIC50,KGN,6.58
same,pIC50,KINGS-1,6.08
same,pIC50,LB373-MEL-D,7.37
same,pIC50,LS-1034,6.18
same,pIC50,MFH-ino,6.61
same,pIC50,MMAC-SF,7.12
same,pIC50,MN-60,7.00
same,pIC50,MOLT-16,5.76
same,pIC50,NB5,5.85
same,pIC50,NCI-H1355,6.82
same,pIC50,NCI-H1581,5.63
same,pIC50,NCI-H1648,6.95
same,pIC50,SNU1,6.92
same,pIC50,NOMO-1,6.25
same,pIC50,RH-1,6.65
same,pIC50,RKO,> 7.20
same,pIC50,RXF 393,5.75
same,pIC50,Ramos-2G6-4C10,6.89
same,pIC50,SF-268,7.24
same,pIC50,SNB-75,6.25
same,pIC50,SW684,< 4.80
same,pIC50,A101D,7.52
same,pIC50,A253 cell line,6.24
same,pIC50,A704,7.04
same,pIC50,BB30-HNC,> 7.20
same,pIC50,C2BBe1,5.62
same,pIC50,no-10,5.84
same,pIC50,CCRF-CEM,6.11
same,pIC50,COLO-320-HSR,7.28
